The target in assay [1] is PDE5 (Mus musculus, UniProt Q8CG03). Nature of the assay: PDE5 inhibition, two-step radioactive [3H]cGMP assay. Conditions: for IC50 ratio PDE6/PDE5: pure compounds, selectivity on PDE5 over PDE6. The class given is biochemical.
In assay [2] the target is T1, PDE6 (Gallus gallus, UniProt P52731).
T1 sequence (P52731 1-859 limits assumed): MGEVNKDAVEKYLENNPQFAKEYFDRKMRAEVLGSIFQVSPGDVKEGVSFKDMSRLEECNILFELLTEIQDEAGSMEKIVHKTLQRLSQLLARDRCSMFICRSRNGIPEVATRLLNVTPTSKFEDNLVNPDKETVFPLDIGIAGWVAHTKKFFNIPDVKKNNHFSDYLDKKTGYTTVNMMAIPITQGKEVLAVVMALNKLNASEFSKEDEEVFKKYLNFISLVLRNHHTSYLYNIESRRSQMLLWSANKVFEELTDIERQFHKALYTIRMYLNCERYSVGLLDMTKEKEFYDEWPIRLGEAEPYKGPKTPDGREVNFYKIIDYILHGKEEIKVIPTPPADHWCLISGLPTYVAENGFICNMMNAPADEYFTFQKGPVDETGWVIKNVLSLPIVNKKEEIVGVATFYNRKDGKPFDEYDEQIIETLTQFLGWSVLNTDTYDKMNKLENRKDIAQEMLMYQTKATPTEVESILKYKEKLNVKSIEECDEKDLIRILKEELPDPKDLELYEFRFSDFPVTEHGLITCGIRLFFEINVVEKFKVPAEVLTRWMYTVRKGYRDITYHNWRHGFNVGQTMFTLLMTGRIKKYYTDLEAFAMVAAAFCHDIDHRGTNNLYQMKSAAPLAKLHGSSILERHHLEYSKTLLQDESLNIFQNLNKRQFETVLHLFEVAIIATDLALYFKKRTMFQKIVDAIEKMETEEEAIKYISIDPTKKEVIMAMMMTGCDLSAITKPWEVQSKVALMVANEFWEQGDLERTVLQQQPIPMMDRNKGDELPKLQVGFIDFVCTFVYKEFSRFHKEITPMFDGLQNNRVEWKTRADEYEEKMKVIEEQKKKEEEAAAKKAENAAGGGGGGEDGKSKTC
Nature of the assay: PDE6 inhibition, two-step radioactive [3H]cGMP assay. The assay is classed as biochemical, chicken.

Molecules are shown by their SMILES. Where only a bound is given, the exact number is not on record here.

Take `COc1cc(OC)c2c(=O)cc(-c3ccccc3)oc2c1` [Compound 2, 5,7-dimethoxyflavone]: the IC50 (as a rule, the point on the concentration scale where inhibition reaches its midpoint) in assay [1] was 10600 ± 2090 nM; in assay [2], 39500 ± 1000 nM. Moreover, the “IC50 ratio PDE6/PDE5” value in assay [1] worked out at 3.71. Moreover, the inhibition at 10 µM in assay [1] (read-out: % Inhibitory activity at 10 μM PDE5, final concentration 10 μM, n = 3) was over 35%; in assay [2] (read-out: % Inhibitory activity at 10 μM PDE6, final concentration 10 μM, n = 3), over 35%.
For `OCCN(CCO)c1nc(N2CCCCC2)c2nc(N(CCO)CCO)nc(N3CCCCC3)c2n1` [Dipyridamole, dipyridamole], the IC50 in assay [1] is 1460 ± 810 nM; in assay [2], 231 ± 30 nM.
In the case of `CCCc1nn(C)c2c(=O)[nH]c(-c3cc(S(=O)(=O)N4CCN(C)CC4)ccc3OCC)nc12` [Sildenafil, sildenafil], the IC50 in assay [1] was 6.8 nM; in assay [2], 33 ± 10 nM. Besides, the “IC50 ratio PDE6/PDE5” value in assay [1] is given as 4.85.

(Values after PMC4056445 (Journal of ethnopharmacology, 2011).)
